Measured values as given in patent US7598382B2, “Aryl substituted imidazoquinolines” (Coley Pharmaceutical Group, Inc., priority 2002, dated 2009).
Where a name gives a salt, the structure may show the parent alone.

Structure (SMILES)	melting point
CCCc1nc2c(N)nc3cc(-c4cccnc4)ccc3c2n1CC1CCN(S(C)(=O)=O)CC1 (as salt: HCl) (hydrate or solvate) [Example 411, 1-{[1-(Methanesulfonyl)piperidin-4-yl]methyl}-2-propyl-7-(pyridin-3-yl)-1H-imidazo[4,5-c]quinolin-4-amine]	> 250 °C
CCOCc1nc2c(N)nc3cc(-c4cccc(C(=O)N5CCCC5)c4)ccc3c2n1CCCOC (as salt: HCl) [Example 175, {3-[4-Amino-2-ethoxymethyl-1-(3-methoxypropyl)-1H-imidazo[4,5-c]quinolin-7-yl]phenyl}pyrrolidin-1-ylmethanone]	145 to 146 °C
CCOCc1nc2c(N)nc3cc(-c4cccnc4)ccc3c2n1CC1CCN(S(C)(=O)=O)CC1 (as salt: HCl) [Example 178, 2-Ethoxymethyl-1-{[1-(methanesulfonyl)piperidin-4-yl]methyl}-7-(pyridin-3-yl)-1H-imidazo[4,5-c]quinolin-4-amine]	254 to 255 °C
CCCc1nc2c(N)nc3cc(CCc4ccc5sc(C)nc5c4)ccc3c2n1CC(C)C (as salt: HCl) [Example 457, 7-[2-(2-Methylbenzothiazol-5-yl)ethyl]-1-(2-methylpropyl)-2-propyl-1H-imidazo[4,5-c]quinolin-4-amine]	> 250 °C
CCCc1nc2c(N)nc3cc(CCc4ccc(OC)cc4)ccc3c2n1CC(C)C (as salt: HCl) [Example 459, 7-[2-(4-Methoxyphenyl)ethyl]-1-(2-methylpropyl)-2-propyl-1H-imidazo[4,5-c]quinolin-4-amine]	> 250 °C
CCCc1nc2c(N)nc3cc(CCc4ccccc4OC)ccc3c2n1CC(C)C (as salt: HCl) [Example 460, 7-[2-(2-Methoxyphenyl)ethyl]-1-(2-methylpropyl)-2-propyl-1H-imidazo[4,5-c]quinolin-4-amine]	> 250 °C
CCOCc1nc2c(N)nc3cc(-c4cccnc4)ccc3c2n1CC1CCNCC1 (as salt: hydrochloride) [Example 177, 2-Ethoxymethyl-1-(piperidin-4-ylmethyl)-7-(pyridin-3-yl)-1H-imidazo[4,5-c]quinolin-4-amine trihydrochloride]	> 250 °C
CCc1nc2c(N)nc3cc(-c4cccnc4)ccc3c2n1CC1CCNCC1 (as salt: hydrochloride) [Example 405, 2-Ethyl-1-(piperidin-4-ylmethyl)-7-(pyridin-3-yl)-1H-imidazo[4,5-c]quinolin-4-amine trihydrochloride]	> 250 °C
CCCc1nc2c(N)nc3cc(-c4cccnc4)ccc3c2n1CC1CCNCC1 (as salt: hydrochloride) [Example 410, 1-(Piperidin-4-ylmethyl)-2-propyl-7-(pyridin-3-yl)-1H-imidazo[4,5-c]quinolin-4-amine trihydrochloride]	> 250 °C
CCOCc1nc2c(N)nc3cc(-c4cccnc4)ccc3c2n1CC1CCCCN1 (centres unmarked) (as salt: hydrochloride) [Example 491, 2-Ethoxymethyl-1-(piperidin-2-ylmethyl)-7-(pyridin-3-yl)-1H-imidazo[4,5-c]quinolin-4-amine trihydrochloride]	> 250 °C
CCOCc1nc2c(N)nc3cc(-c4cccnc4)ccc3c2n1CC1CCN(C(=O)C(C)C)CC1 (hydrate or solvate) [Example 179, 2-Ethoxymethyl-1-[(1-isobutyrylpiperidin-4-yl)methyl]-7-(pyridin-3-yl)-1H-imidazo[4,5-c]quinolin-4-amine]	130 to 132 °C
CCOCc1nc2c(N)nc3cc(-c4cccnc4)ccc3c2n1CC1CCN(C(=O)N2CCOCC2)CC1 (hydrate or solvate) [Example 180, 2-Ethoxymethyl-1-{[1-(morpholin-4-ylcarbonyl)piperidin-4-yl]methyl}-7-(pyridin-3-yl)-1H-imidazo[4,5-c]quinolin-4-amine]	224 to 225 °C
CCCCCCCCCCCCCCCC(=O)N1CCC(Cn2c(COCC)nc3c(N)nc4cc(-c5cccnc5)ccc4c32)CC1 (hydrate or solvate) [Example 181, 2-Ethoxymethyl-1-[(1-palmitoylpiperidin-4-yl)methyl]-7-(pyridin-3-yl)-1H-imidazo[4,5-c]quinolin-4-amine]	72 to 75 °C
COCCc1nc2c(N)nc3cc(-c4cccc(CO)c4)ccc3c2n1CCCN1CCCC1=O (hydrate or solvate) [Example 185, 1-{3-[4-Amino-7-(3-hydroxymethylphenyl)-2-(2-methoxyethyl)-1H-imidazo[4,5-c]quinolin-1-yl]propyl}pyrrolidin-2-one]	184 to 187 °C
COCCc1nc2c(N)nc3ccc(-c4ccccc4)cc3c2n1CCCN1CCCC1=O (hydrate or solvate) [Example 187, 1-{3-[4-Amino-2-(2-methoxyethyl)-8-phenyl-1H-imidazo[4,5-c]quinolin-1-yl]propyl}pyrrolidin-2-one]	207 to 210 °C
COCCc1nc2c(N)nc3ccc(-c4cccc(C(C)=O)c4)cc3c2n1CCCN1CCCC1=O (hydrate or solvate) [Example 189, 1-{3-[8-(3-Acetylphenyl)-4-amino-2-(2-methoxyethyl)-1H-imidazo[4,5-c]quinolin-1-yl]propyl}pyrrolidin-2-one]	164 to 167 °C

Structure (SMILES)	melting point
CCOCc1nc2c(N)nc3cc(-c4ccccc4)ccc3c2n1CC1CCN(C(=O)C(C)C)CC1 (hydrate or solvate) [Example 194, 2-Ethoxymethyl-1-[(1-isobutyrylpiperidin-4-yl)methyl]-7-phenyl-1H-imidazo[4,5-c]quinolin-4-amine]	156 to 158 °C
CCOCc1nc2c(N)nc3cc(-c4cccnc4)ccc3c2n1CCCCNC(=O)C1CCCC1 (hydrate or solvate) [Example 374, N-{4-[4-Amino-2-ethoxymethyl-7-(pyridin-3-yl)-1H-imidazo[4,5-c]quinolin-1-yl]butyl}cyclopentanecarboxamide]	196 to 198 °C
CCOCc1nc2c(N)nc3cc(-c4cccnc4)ccc3c2n1CCCCNS(C)(=O)=O (hydrate or solvate) [Example 375, N-{4-[4-Amino-2-ethoxymethyl-7-(pyridin-3-yl)-1H-imidazo[4,5-c]quinolin-1-yl]butyl}methanesulfonamide]	186 to 188 °C
CCCC(=O)NCCCCn1c(CCC)nc2c(N)nc3cc(-c4cccnc4)ccc3c21 (hydrate or solvate) [Example 380, N-{4-[4-Amino-2-propyl-7-(pyridin-3-yl)-1H-imidazo[4,5-c]quinolin-1-yl]butyl}butyramide]	144 to 146 °C
CCCc1nc2c(N)nc3cc(-c4cccnc4)ccc3c2n1CCCCNC(=O)C(C)C (hydrate or solvate) [Example 381, N-{4-[4-Amino-2-propyl-7-(pyridin-3-yl)-1H-imidazo[4,5-c]quinolin-1-yl]butyl}-2-methylpropanamide]	168 to 170 °C
CCCc1nc2c(N)nc3cc(-c4cccnc4)ccc3c2n1CCCCNC(=O)C1CCCC1 (hydrate or solvate) [Example 382, N-{4-[4-Amino-2-propyl-7-(pyridin-3-yl)-1H-imidazo[4,5-c]quinolin-1-yl]butyl}cyclopentanecarboxamide]	180 to 182 °C
CCCNC(=O)NCCCCn1c(CCC)nc2c(N)nc3cc(-c4cccnc4)ccc3c21 (hydrate or solvate) [Example 384]	184 to 185 °C
CCCc1nc2c(N)nc3cc(-c4cccnc4)ccc3c2n1CCCCNC(=O)NC(C)C (hydrate or solvate) [Example 385]	173 to 175 °C
COCc1nc2c(N)nc3cc(-c4cccc(C(=O)N5CCOCC5)c4)ccc3c2n1CC(C)(C)O (hydrate or solvate) [Example 401, {3-[4-Amino-1-(2-hydroxy-2-methylpropyl)-2-methoxymethyl-1H-imidazo[4,5-c]quinolin-7-yl]phenyl}morpholin-4-ylmethanone]	176 to 177 °C
COCc1nc2c(N)nc3cc(-c4cncc(CO)c4)ccc3c2n1CC(C)(C)O (hydrate or solvate) [Example 402, 1-[4-Amino-7-(5-hydroxymethylpyridin-3-yl)-2-methoxymethyl-1H-imidazo[4,5-c]quinolin-1-yl]-2-methylpropan-2-ol]	224 to 225 °C
CCc1nc2c(N)nc3cc(-c4cccnc4)ccc3c2n1CC1CCN(S(C)(=O)=O)CC1 (hydrate or solvate) [Example 406, 2-Ethyl-1-{[1-(methanesulfonyl)piperidin-4-yl]methyl}-7-(pyridin-3-yl)-1H-imidazo[4,5-c]quinolin-4-amine]	228 to 229 °C
CCc1nc2c(N)nc3cc(-c4cccnc4)ccc3c2n1CC1CCN(C(=O)C(C)C)CC1 (hydrate or solvate) [Example 407, 1-{4-[4-Amino-2-ethyl-7-(pyridin-3-yl)-1H-imidazo[4,5-c]quinolin-1-ylmethyl]piperidin-1-yl}-2-methylpropan-1-one]	189 to 191 °C
CCc1nc2c(N)nc3cc(-c4cccnc4)ccc3c2n1CC1CCN(C(=O)NC(C)C)CC1 (hydrate or solvate) [Example 408, 4-[4-Amino-2-ethyl-7-(pyridin-3-yl)-1H-imidazo[4,5-c]quinolin-1-ylmethyl]piperidin-1-carboxylic acid isopropylamide]	255 to 256 °C
CCOCc1nc2c(N)nc3cc(-c4cccnc4)ccc3c2n1CCN1CCN(S(C)(=O)=O)CC1 (hydrate or solvate) [Example 415, 2-Ethoxymethyl-1-{2-[4-(methanesulfonyl)piperazin-1-yl]ethyl}-7-(pyridin-3-yl)-1H-imidazo[4,5-c]quinolin-4-amine]	205 to 207 °C
CCOCc1nc2c(N)nc3cc(-c4cccnc4)ccc3c2n1CCN1CCN(C(=O)C(C)C)CC1 (hydrate or solvate) [Example 416, 1-(4-{2-[4-Amino-2-ethoxymethyl-7-(pyridin-3-yl)-1H-imidazo[4,5-c]quinolin-1-yl]ethyl}piperazin-1-yl)-2-methylpropan-1-one]	190 to 192 °C
CCCc1nc2c(N)nc3cc(Cc4ccccc4)ccc3c2n1CC(C)(C)O (hydrate or solvate) [Example 432, 1-(4-Amino-7-benzyl-2-propyl-1H-imidazo[4,5-c]quinolin-1-yl)-2-methylpropan-2-ol]	130 to 131 °C
